A short description of this series: Bulk density. In kind it is physicochemical. To be noted: docetaxel; room temperature. The protocol:
The mass of the drug was measured to a nearest 0.1 mg, the volume was determined to the nearest 0.1 mL and the density calculated.

Results on 1 compound are retold here after US11291646B2, “Nozzle assembly and methods for use” (CRITITECH, INC., priority 2015, dated 2022).

With `CC(=O)O[C@@]12CO[C@@H]1C[C@H](O)[C@@]1(C)C(=O)[C@H](O)C3=C(C)[C@@H](OC(=O)[C@H](O)[C@@H](NC(=O)OC(C)(C)C)c4ccccc4)C[C@@](O)([C@@H](OC(=O)c4ccccc4)[C@H]21)C3(C)C` [Docetaxel Raw Material, docetaxel], the “Bulk Density” value came to 0.24 g/cm3.
